Among the data in patent US20110028405A1, “SULFAMIDES AS ZAP-70 INHIBITORS” (priority 2007, published 2011) are IC50 values, retold here.

The target of one assay is T1, ZAP-70 (Homo sapiens, UniProt P43403).
T1 construct: endogenous in cells; host or cells: cell lysate
T1 sequence (P43403 1-619): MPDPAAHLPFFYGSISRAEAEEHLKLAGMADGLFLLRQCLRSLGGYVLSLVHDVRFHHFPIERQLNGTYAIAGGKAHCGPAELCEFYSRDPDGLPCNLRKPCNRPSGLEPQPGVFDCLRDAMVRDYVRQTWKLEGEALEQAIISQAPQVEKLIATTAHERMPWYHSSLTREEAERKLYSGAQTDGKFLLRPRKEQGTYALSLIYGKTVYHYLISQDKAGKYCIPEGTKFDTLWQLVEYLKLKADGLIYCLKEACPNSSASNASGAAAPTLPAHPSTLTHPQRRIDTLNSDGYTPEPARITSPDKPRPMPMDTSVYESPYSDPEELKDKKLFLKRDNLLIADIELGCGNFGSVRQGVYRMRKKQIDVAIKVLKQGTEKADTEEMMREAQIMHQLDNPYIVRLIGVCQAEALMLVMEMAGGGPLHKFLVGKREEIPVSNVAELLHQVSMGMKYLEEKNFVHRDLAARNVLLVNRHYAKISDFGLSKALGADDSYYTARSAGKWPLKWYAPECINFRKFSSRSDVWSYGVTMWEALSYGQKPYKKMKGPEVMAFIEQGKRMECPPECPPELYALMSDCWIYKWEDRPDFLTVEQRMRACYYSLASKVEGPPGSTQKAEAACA
The assay is described as follows: ZAP-70 kinobeads assay. In kind it is binding. The conditions noted are these: cell lysate, dot blot detection. How it is done: The compounds of the present invention as described in the previous examples can be tested in the ZAP-70 kinobeads assay as described (EP-A 1862802 and WO-A 2007/137867). Briefly, test compounds (at various concentrations) and the affinity matrix with the immobilized aminopyrido-pyrimidine ligand 24 are added to cell lysate aliquots and allowed to bind to the proteins in the lysate sample. After the incubation time the beads with captured proteins are separated from the lysate. Bound proteins are then eluted and the presence ZAP-70 is detected and quantified using a specific antibody in a dot blot procedure and the Odyssey infrared detection system.

The test system of another assay is Jurkat cells. As to the kind of experiment: Calcium release assay (Fluo-4, flow cytometry, anti-CD3 stimulation). It is filed as cell-based. The conditions noted are these: Homo sapiens; intracellular Ca2+ release in Jurkat cells after anti-CD3 activation. How it is done:
Compounds of the present invention were tested in a Calcium release assay as described below.
The development of fluorescent probes makes it possible to measure the concentration of intracellular free Calcium ions in single living cells. Cells are first loaded with a cell-permeable Ca^2+-sensitive dye, then the test compound is added. Finally, cells are activated through the T cell receptor with an anti-CD3 antibody shortly before data acquisition on the flow cytometer. The release of Ca^2+ is measured as a function of time after cell stimulation. This protocol describes the flow cytometry method using the Fluo-3 and Fluo-4 dyes (Minta et al., 1989, J. Biol. Chem. 264(14):8171-8178) to measure the intracellular Ca^2+ concentration in Jurkat cells (see also June et al., 1997, Measurement of intracellular calcium ions by flow cytometry. In: Current Protocols in Cytometry (1997) Unit 9.8.1-9.8.19, John Wiley & Sons, Inc.).
1) Prepare a work plan indicating the number of samples to be analyzed including controls. 2) Cell harvest: Centrifuge 50 to 100 ml of a Jurkat cell culture for 5 minutes at 1100 rpm. Discard the supernatant, pool the resuspended cell pellets in a single 50 ml Falcon tube, and fill up to 50 ml with PBS-CaCl2 (without FCS). Centrifuge again sample again. 3) Resuspend cell pellet with PBS-CaCl2 (without FCS) to achieve a concentration not lower than 10×10^6 cells/ml. Prepare an adequate dilution to evaluate the cell concentration and count the cells. 4) Separate the volume of cells needed to be loaded (for example […] for 20 samples) in a 50 ml Falcon tube. Fill up with PBS-CaCl2 to 900 μl for 107 cells. 5) Prepare in the dark a 1:1 mix of FLUO-4 (1 mM)+Pluronic F-127 (20%). 5 μl of Fluo-4 are needed per 107 cells. 6) Prepare a 1/10 dilution of this mix with PBS-CaCl2 (in the dark; for example 5 μl Fluo-4+5 μl F-127 completed to 100 μl). 7) Add the dye solution to the cells. […] 8) Incubate the sample for 30 minutes in a cell incubator (37° C., 5% CO2). Mix from time to time. 9) During this time prepare the adequate test compound dilution in PBS-CaCl2 (with 10% FCS). The solution should be 10 times more concentrated than the desired final concentration. Vortex each dilution. Prepare also the antibody dilutions: anti-CD3 (1/200) and GAM (1/25). 10) Label FACS tubes and distribute in the corresponding tube 30 μl of the compound dilution or only buffer for the control tubes. 11) After 30 minutes of incubation wash the cells twice in PBS-CaCl2 (with 10% FCS). During the washing steps make sure that the flow cytometer is already “ON” in order to warm the laser. 12) Resuspend the cell pellet in PBS-CaCl2 (with 10% FCS) at a concentration of 1.5×10^6 cells/ml. 13) Distribute 300 μl of cell suspension into the FACS tubes and mix gently. The compound incubation is starting. Keep samples at room temperature in the dark. 14) Open the settings of the cytometer. It is advised to have a template ready which is used for all measurements. Settings of the machine should also be the same from one experiment to the other which permits to evaluate the reproducibility of the cell preparation. 15) In Setup modus control your cell preparation on the cytometer. Cells should fit in the pre-defined gates. 16) During the compound incubation time, check also that cells are responding to the anti-CD3 activation as expected. Set a timer at 8 sec. Add 6 μl of anti-CD3 dilution (0.2 μg/ml final) and mix gently. Add 1 μl of GAM dilution (0.75 μg/ml final) and mix gently. Incubate the samples in water bath at 37° C. while starting timer. After 8 seconds of incubation, acquire data at medium speed for 200 seconds. A clear increase of fluorescence should appear after 1 minute. 17) Make sure that the cells rest and equilibrate at room temperature 15 minutes before FACS data acquisition 18) Data acquisition: Samples to be compared should be measured consecutively. 19) For a better reproducibility, make sure that data for the loaded cells are acquired within 2 hours. […]
Background: In flow cytometry, cells or beads pass a laser one at a time.

By IC50 is commonly meant the concentration at which inhibition is half-maximal. Turning to `COc1cccc(Nc2nc(Nc3cc(OC)c(OC)c(OC)c3)ncc2F)c1NS(N)(=O)=O` [Example 32, N-(2-(5-fluoro-2-(3,4,5-trimethoxyphenylamino)pyrimidin-4-ylamino)-6-methoxyphenyl)sulfamide], the IC50 at ZAP-70 and in the assay with Jurkat cells was below 0.1 µM throughout.

On ZAP-70, `COc1cc(Nc2ncc(F)c(Nc3ccccc3NS(=O)(=O)NC(C)C)n2)cc(OC)c1OC` [Example 13, N-(2-(5-fluoro-2-(3,4,5-trimethoxyphenylamino)pyrimidin-4-ylamino)phenyl)-N′-isopropylsulfamide] gave an IC50 below 50 µM.

`COc1cc(Nc2ncc(F)c(Nc3cccc(NS(N)(=O)=O)c3)n2)cc(OC)c1OC` [Example 1, N-(3-(5-fluoro-2-(3,4,5-trimethoxyphenylamino)pyrimidin-4-ylamino)phenyl)sulfamide]: the IC50 against ZAP-70 was below 50 µM; with Jurkat cells, below 1 µM.

Turning to `COc1cc(Nc2ncc(F)c(Nc3cccc(NS(=O)(=O)N(C)C)c3)n2)cc(OC)c1OC` [Example 2, N-(3-(5-fluoro-2-(3,4,5-trimethoxyphenylamino)pyrimidin-4-ylamino)phenyl)-N′,N′-dimethylsulfamide], the half-maximal inhibitory concentration (IC50) against ZAP-70 was below 50 µM.

With `COc1cc(Nc2ncc(C)c(Nc3ccccc3NS(N)(=O)=O)n2)cc(OC)c1OC` [Example 24, N-(2-(5-methyl-2-(3,4,5-trimethoxyphenylamino)pyrimidin-4-ylamino)phenyl)sulfamide], the IC50 was below 1 µM at ZAP-70 and below 0.1 µM in the assay with Jurkat cells.

`CN(C)c1ccc(Nc2ncc(F)c(Nc3ccccc3NS(N)(=O)=O)n2)cc1` [Example 29, N-(2-(5-fluoro-2-(4-(dimethylamino)phenylamino)pyrimidin-4-ylamino)phenyl)sulfamide]: the half-inhibitory concentration (IC50) on ZAP-70 was below 1 µM.

For `COc1cc(Nc2ncc(F)c(Nc3ccccc3NS(=O)(=O)NCC3CC3)n2)cc(OC)c1OC` [Example 12, N-(2-(5-fluoro-2-(3,4,5-trimethoxyphenylamino)pyrimidin-4-ylamino)phenyl)-N′-cyclopropylmethylsulfamide], the half-inhibitory concentration (IC50) against ZAP-70 is below 50 µM; with Jurkat cells it was below 1 µM.

The compound `CNS(=O)(=O)Nc1cccc(Nc2nc(Nc3cc(OC)c(OC)c(OC)c3)ncc2F)c1` [Example 9, N-(3-(5-fluoro-2-(3,4,5-trimethoxyphenylamino)pyrimidin-4-ylamino)phenyl)-N′-methylsulfamide] yielded a half-inhibitory concentration (IC50) against ZAP-70 below 50 µM.

Turning to `CCOc1cccc(Nc2nc(Nc3cc(OC)c(OC)c(OC)c3)ncc2F)c1NS(N)(=O)=O` [Example 33, N-(2-ethoxy-6-(5-fluoro-2-(3,4,5-trimethoxyphenylamino)pyrimidin-4-ylamino)phenyl)sulfamide], the IC50 against ZAP-70 was below 0.1 µM; in the assay with Jurkat cells, below 1 µM.

Consider `COCCNS(=O)(=O)Nc1ccccc1Nc1nc(Nc2cc(OC)c(OC)c(OC)c2)ncc1F` [Example 15, N-(2-(5-fluoro-2-(3,4,5-trimethoxyphenylamino)pyrimidin-4-ylamino)phenyl)-N′-(2-methoxyethyl)sulfamide], for which the IC50 against ZAP-70 is below 50 µM; in the assay on Jurkat cells, below 1 µM.

`COCCNS(=O)(=O)Nc1cccc(Nc2nc(Nc3cc(OC)c(OC)c(OC)c3)ncc2F)c1` [Example 8, N-(3-(5-fluoro-2-(3,4,5-trimethoxyphenylamino)pyrimidin-4-ylamino)phenyl)-N′-(2-methoxyethyl)sulfamide] gave an IC50 at ZAP-70 below 50 µM.

As to `COc1cc(Nc2ncc(F)c(Nc3ccc(NS(=O)(=O)N(C)C)cc3)n2)cc(OC)c1OC` [Example 16, N-(4-(5-fluoro-2-(3,4,5-trimethoxyphenylamino)pyrimidin-4-ylamino)phenyl)N′,N′-dimethylsulfamide], the IC50 with Jurkat cells is below 1 µM.

As to `COc1ccc(Nc2ncc(F)c(Nc3ccccc3NS(N)(=O)=O)n2)cc1` [Example 28, N-(2-(5-fluoro-2-(4-methoxyphenylamino)pyrimidin-4-ylamino)phenyl)sulfamide], the IC50 against ZAP-70 was below 50 µM; with Jurkat cells it was below 1 µM.

On to `CCNS(=O)(=O)Nc1cccc(Nc2nc(Nc3cc(OC)c(OC)c(OC)c3)ncc2F)c1` [Example 7, N-(3-(5-fluoro-2-(3,4,5-trimethoxyphenylamino)pyrimidin-4-ylamino)phenyl)-N′-ethylsulfamide], for which the concentration for half-maximal inhibition (IC50) is below 50 µM on ZAP-70 and below 1 µM in the assay on Jurkat cells.

For the compound `COc1ccc(Nc2ncc(Br)c(Nc3ccccc3NS(N)(=O)=O)n2)cc1` [Example 26, N-(2-(5-bromo-2-(4-methoxyamino)pyrimidin-4-ylamino)phenyl)sulfamide], the IC50 against ZAP-70 was below 1 µM; in the assay on Jurkat cells, below 0.1 µM.

With `COc1cc(Nc2ncc(F)c(Nc3ccccc3NS(N)(=O)=O)n2)cc(OC)c1OC` [Example 10, N-(2-(5-fluoro-2-(3,4,5-trimethoxyphenylamino)pyrimidin-4-ylamino)phenyl)sulfamide], the IC50 against ZAP-70 and in the assay with Jurkat cells was below 0.1 µM each time.

`NS(=O)(=O)Nc1ccccc1Nc1nc(Nc2ccc3[nH]nnc3c2)ncc1Br` [Example 27, N-(2-(2 (1H-benzo[d][1,2,3]triazol-5-ylamino)-5-bromopyrimidin-4-ylamino)phenyl)sulfamide]: the concentration for half-maximal inhibition (IC50) against ZAP-70 and in the assay with Jurkat cells was below 1 µM each time.

At ZAP-70, `COc1cc(Nc2ncc(F)c(Nc3ccccc3NS(=O)(=O)NCc3ccccc3)n2)cc(OC)c1OC` [Example 14, N-(2-(5-fluoro-2-(3,4,5-trimethoxyphenylamino)pyrimidin-4-ylamino)phenyl)-N′-benzylsulfamide] displayed a half-maximal inhibitory concentration (IC50) below 50 µM.

Turning to `COc1cc(Nc2ncc(F)c(Nc3cccc(NS(=O)(=O)NCC4CC4)c3)n2)cc(OC)c1OC` [Example 3, N-(3-(5-fluoro-2-(3,4,5-trimethoxyphenylamino)pyrimidin-4-ylamino)phenyl)-N′-cyclopropylmethylsulfamide], on ZAP-70, the IC50 was below 50 µM.

The compound `COc1cc(Nc2ncc(F)c(Nc3cccc(NS(=O)(=O)NC(C)C)c3)n2)cc(OC)c1OC` [Example 6, N-(3-(5-fluoro-2-(3,4,5-trimethoxyphenylamino)pyrimidin-4-ylamino)phenyl)-N′-isopropylsulfamide] yielded an IC50 on ZAP-70 below 50 µM.
